Structures are written as SMILES. Where “and” joins values, the source holds several entries; their conditions need not be identical. Equal values may be shown once.

Series [1] relates to oncogenic variants of FLT3. Set-up: method as in PMID 28418845. Particulars: cited from earlier work.
Series [2] has as its system MV4-11 cells. As to the kind of experiment: Flow cytometric cell cycle analysis, MV4-11. Particulars: 24 h; for effect on cell cycle (G1 arrest) in MV4-11: 200 nM. It is filed as cell-based, Human. How it is done:
(§1) FLT3 inhibition causes G1-cell cycle arrest in FLT3-dependent cell lines such as MV4-11; we, therefore, performed flow cytometric analysis to evaluate cell cycle changes in MV4-11 and K562 cell lines treated with 200 nM compounds for 24 h. […] Specifically, 18 compounds arrested >85% of cells in the G1 phase, which is >30% cells in the G1 phase of the cell cycle than in control cells (Figure 4A).
(§2) Finally, we performed flow cytometric analysis with different concentrations of 15a in MV4-11 and MOLM13 (another FLT-ITD positive cell line) and K562 cell lines treated for 24 h (Figure 5).
(§3) Asynchronously growing cells were seeded into a 96-well plate and, after a preincubation period, treated with tested compounds for 24 h. The treated cells were stained directly (or after trypsinization for the adherent cells) with the 5× staining solution (17 mM trisodium citrate dihydrate, 0.5% IGEPAL CA-630, 7.5 mM spermine tetrahydrochloride, and 2.5 mM Tris; pH 7.6 containing […] propidium iodide). After the staining, DNA content was analyzed using flow cytometry using a 488 nm laser (BD FACS Verse with software BD FACSuite^TM, version 1.0.6). Cell cycle distribution was analyzed using ModFit LT (Verity Software House, version 5.0). Palbociclib, trilaciclib, and quizartinib were purchased from MedChemExpress, Monmouth Junction, NJ, USA.

The subject of series [3] is K562 cells. As to the kind of experiment: Flow cytometric cell cycle analysis, K562. The series is classed as cell-based, Human. The following applies: 24 h; for effect on cell cycle (G1 arrest) in K562: 200 nM. How it is done:
as §1, §2, §3

The next series has as its target CDK2/E (Homo sapiens, UniProt P24941). The series is described as follows: Kinase inhibition assay CDK2/E. It is filed as biochemical. The following applies: at least duplicate experiments; read-out: IC50 CDK2/E. How it is done:
(§4) Newly prepared compounds 12–15 were assayed for inhibition of FLT3-ITD kinase as well as CDK4 and CDK2, known off-targets of structurally related compounds. We observed that CDK4 was sensitive to nearly all compounds with IC50 values in mid-nanomolar values.
(§5) CDK/cyclin complexes and FLT3 kinases were assayed as previously described. Protein kinase selectivity was evaluated at a single concentration (1 µM) by screening against 30 enzymes at Eurofins Discovery (France).

Another series addresses CDK4/D1 (Homo sapiens, UniProt P11802). As to the kind of experiment: Kinase inhibition assay CDK4/D1. It is filed as biochemical. The following applies: at least duplicate experiments; read-out: IC50 CDK4/D1. The protocol: as §4, §5
The target in another series is T1, FLT3-ITD (Homo sapiens, UniProt P36888, ITD).
T1 sequence (P36888 27-993): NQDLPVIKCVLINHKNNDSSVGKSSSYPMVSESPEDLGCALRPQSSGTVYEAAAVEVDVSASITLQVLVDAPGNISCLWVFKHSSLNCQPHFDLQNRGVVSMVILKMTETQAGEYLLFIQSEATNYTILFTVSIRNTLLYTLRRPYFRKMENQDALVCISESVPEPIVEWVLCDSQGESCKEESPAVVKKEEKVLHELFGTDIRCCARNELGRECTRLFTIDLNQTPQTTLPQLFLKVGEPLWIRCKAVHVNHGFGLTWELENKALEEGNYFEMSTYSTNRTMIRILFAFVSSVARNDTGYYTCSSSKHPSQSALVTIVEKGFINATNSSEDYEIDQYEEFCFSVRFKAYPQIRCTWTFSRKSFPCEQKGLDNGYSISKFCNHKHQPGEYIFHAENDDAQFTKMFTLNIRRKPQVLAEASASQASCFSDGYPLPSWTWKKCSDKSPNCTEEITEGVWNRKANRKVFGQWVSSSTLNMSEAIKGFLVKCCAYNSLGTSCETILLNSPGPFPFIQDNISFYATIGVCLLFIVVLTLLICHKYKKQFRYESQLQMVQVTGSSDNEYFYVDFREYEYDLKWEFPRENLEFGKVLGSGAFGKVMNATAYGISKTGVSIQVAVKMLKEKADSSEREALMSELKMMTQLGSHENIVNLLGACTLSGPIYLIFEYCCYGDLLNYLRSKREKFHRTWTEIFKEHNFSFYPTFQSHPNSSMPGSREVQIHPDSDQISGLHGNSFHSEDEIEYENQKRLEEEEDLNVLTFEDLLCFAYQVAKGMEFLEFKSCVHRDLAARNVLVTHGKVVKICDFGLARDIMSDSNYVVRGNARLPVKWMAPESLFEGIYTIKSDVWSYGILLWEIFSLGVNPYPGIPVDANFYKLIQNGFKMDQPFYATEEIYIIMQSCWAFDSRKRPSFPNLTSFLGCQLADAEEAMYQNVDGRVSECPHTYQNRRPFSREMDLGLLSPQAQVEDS
As to the kind of experiment: Kinase inhibition assay FLT3-ITD. It is filed as biochemical. The following applies: at least duplicate experiments; read-out: IC50 FLT3-ITD. How it is done:
as §4, §5

Series [4] concerns MV4-11 cells. The series is described as follows: Resazurin-based viability assay, MV4-11. The series is classed as cell-based, Human. Particulars: Homo sapiens, MV4-11; 72 h, resazurin; at least duplicate experiments. An excerpt: (§6) In parallel to kinase assays, we measured the effect of compounds on the viability of cancer cell lines MV4-11 and K562 using a resazurin-based assay. MV4-11 is an AML cell line dependent on a constitutively activated FLT3-ITD kinase with high sensitivity to FLT3 inhibition, K562 cells (chronic myelogenous leukemia) are independent on FLT3.
(§7) Human cell lines were obtained from the European Collection of Authenticated Cell Cultures (K562) and Cell lines service (MV4-11) and were cultivated according to the provider’s instructions. Briefly, cells were maintained in RPMI-1640 (MV4-11) or DMEM (K562) supplemented with 10% fetal bovine serum, penicillin (100 U/mL), and streptomycin (0.1 mg/mL) at 37 °C in 5% CO2. For the viability assays, cells were treated in triplicate with six different doses of each compound for 72 h. After treatments, the resazurin (Sigma Aldrich, St. Louis, MO, USA) solution was added for 4 h, and the fluorescence of resorufin corresponding to live cells was measured at 544/590 nm (excitation/emission) using a Fluoroskan Ascent microplate reader (Labsystems). The GI50 value, the drug concentration lethal to 50% of the cells, was calculated from the dose-response curves that resulted from the assays.

Series [5] has as its system K562 cells. The series is described as follows: Resazurin-based viability assay, K562. Particulars: Homo sapiens, 72 h, at least duplicate experiments. It is filed as cell-based.
Description: as §6, §7

A further series has as its system MOLM13 cells. As to the kind of experiment: Flow cytometric cell cycle analysis, MOLM13. It is filed as cell-based. Particulars: increasing doses, 24 h. How it is done:
as §2
as §3, with “5.0).” for “5.0). Palbociclib, trilaciclib, and quizartinib were purchased from MedChemExpress, Monmouth Junction, NJ, USA.”

CDK4/D1, sequence (P11802 whole entry): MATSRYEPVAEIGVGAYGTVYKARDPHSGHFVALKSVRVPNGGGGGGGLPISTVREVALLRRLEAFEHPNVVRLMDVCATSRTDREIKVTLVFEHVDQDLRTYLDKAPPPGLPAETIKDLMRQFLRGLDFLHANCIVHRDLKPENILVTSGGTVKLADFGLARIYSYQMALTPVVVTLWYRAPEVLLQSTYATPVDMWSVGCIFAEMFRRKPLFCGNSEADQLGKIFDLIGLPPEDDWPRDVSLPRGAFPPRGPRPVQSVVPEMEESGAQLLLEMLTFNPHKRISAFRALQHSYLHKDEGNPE
CDK4/D1, sequence (P24385 whole entry partner): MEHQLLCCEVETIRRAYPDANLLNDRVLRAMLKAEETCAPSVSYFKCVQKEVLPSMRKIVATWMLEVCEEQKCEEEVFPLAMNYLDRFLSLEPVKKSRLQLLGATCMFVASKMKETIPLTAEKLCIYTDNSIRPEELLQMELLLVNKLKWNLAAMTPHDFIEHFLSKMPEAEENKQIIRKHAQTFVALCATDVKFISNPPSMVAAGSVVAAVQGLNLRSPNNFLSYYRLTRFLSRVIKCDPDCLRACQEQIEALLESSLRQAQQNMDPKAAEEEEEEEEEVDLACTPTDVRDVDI

As for `CN1CCN(c2ccc(Nc3ncc4cc5n(c4n3)C3(CCCCC3)CNC5=O)nc2)CC1` [trilaciclib], the “affinity to oncogenic variants of FLT3” value in series [1] is given as “low nanomolar affinity”.
For the molecule `CC(=O)c1c(C)c2cnc(Nc3ccc(N4CCNCC4)cn3)nc2n(C2CCCC2)c1=O` [palbociclib, reference compound], in the series on MV4-11 cells [2], the “effect on cell cycle (G1 arrest) in MV4-11” value (from here on “effect … in MV4-11”) was “significantly arrest both cell lines in the G1 phase”. Besides, in the series on K562 cells [3], the “effect on cell cycle (G1 arrest) in K562” value is listed as “significantly arrest both cell lines in the G1 phase”.
As to `Cn1c(=O)n(C2CCCCCCCCCCC2)c2nc(Nc3ccc(N4CCNCC4)cc3)ncc21` [14j], the “effect … in MV4-11” value in the series on MV4-11 cells [2] is “did not significantly affect the cell cycle”. Also, the IC50 is > 1000 nM and 1020 nM on CDK2/E; 338 nM on CDK4/D1; 75 nM on FLT3-ITD. For the same molecule, the GI50 in the series with MV4-11 cells [4] was 1810 nM; in the series with K562 cells [5], 3590 nM.
Regarding `CC1CCC(n2c(C(F)(F)F)nc3cnc(Nc4ccc(N5CCNCC5)cc4)nc32)CC1` (stereo not shown) [12c], the melting point lay in the range of 228 to 230 °C. For the same molecule, the IC50 at CDK2/E came out at 230 nM. Also, the IC50 at CDK4/D1 came out at 12 nM. Further, in the series with K562 cells [3], the “effect on cell cycle (G1 arrest) in K562” value is reported as “moderate G1 block”. Moreover, the IC50 at FLT3-ITD turned out to be 85 nM. The molecule further registered a GI50 with MV4-11 cells [4] of 440 nM. The concentration for 50% growth inhibition (GI50) in the series with K562 cells [5] is 8210 nM.
Turning to `CC(C)(C)c1cc(NC(=O)Nc2ccc(-c3cn4c(n3)sc3cc(OCCN5CCOCC5)ccc34)cc2)no1` [quizartinib, reference compound], in the series with MV4-11 cells [2], the “effect … in MV4-11” value is listed as “arrested selectively only MV4-11”. Moreover, in the series on MV4-11 cells [2] (increasing doses), the “cells in the G1 phase, MV4-11” value is recorded as “up to 90%”. Further, the “effect on cell cycle (G1 arrest) in K562” value with K562 cells [3] is “arrested selectively only MV4-11”. In the series with K562 cells [3] (different concentrations), the “cell cycle changes in K562” value is reported as “did not show any changes”. Also, the “cells in the G1 phase, MOLM13” value in the series with MOLM13 cells was “up to 90%”.
`Cc1ccccc1-n1c(=O)n(C)c2cnc(Nc3ccc(N4CCNCC4)cc3)nc21` [14n] yielded a melting point of 152 to 154 °C. Also, in the series with MV4-11 cells [2], the “effect … in MV4-11” value is recorded as “did not significantly affect the cell cycle”. Also, the IC50 at CDK2/E was found to be 540 nM. Further, the IC50 on CDK4/D1 was found to be 1870 nM. Moreover, the IC50 on FLT3-ITD came out at 2940 nM. The GI50 in the series with MV4-11 cells [4] is 1250 nM. The same molecule returned a GI50 in the series on K562 cells [5] of 16700 nM.
As to `Cn1c(=O)[nH]c2nc(Nc3ccc(N4CCNCC4)cc3)ncc21` [14a], in the series on MV4-11 cells [2], the “effect … in MV4-11” value is listed as “did not significantly affect the cell cycle”. Also, the IC50 was more than 20000 nM at CDK2/E, more than 20000 nM at CDK4/D1 and 6900 nM at FLT3-ITD. The concentration for 50% growth inhibition (GI50) was 5650 nM with MV4-11 cells [4] and more than 100000 nM in the series with K562 cells [5].
`Cn1c(=O)n([C@H]2CC[C@H](O)CC2)c2nc(Nc3ccc(N4CCNCC4)cc3)ncc21` [14f] registered a melting point of 272 to 274 °C. The IC50 on CDK2/E is > 1000 nM and 2870 nM. Also, on CDK4/D1, the IC50 stood at 250 nM. Also, on FLT3-ITD, the IC50 was determined as 132 nM. In the series on MV4-11 cells [4], this molecule had a GI50 of 510 nM. The same molecule showed a GI50 in the series on K562 cells [5] of 9370 nM.
As to `FC(F)(F)c1nc2cnc(Nc3ccc(N4CCNCC4)cc3)nc2n1C1CCCCC1` [12b], the melting point fell in the range of 218 to 220 °C. Further, the IC50 at CDK2/E was 230 nM. At CDK4/D1, the IC50 came out at 16 nM. At FLT3-ITD, the IC50 amounted to 60 nM. In addition, the GI50 in the series with MV4-11 cells [4] was found to be 110 nM. Halving of growth with K562 cells [5] (GI50) required 1170 nM.
`Cn1c(=O)n(C=Cc2ccc(F)cc2)c2nc(Nc3ccc(N4CCNCC4)cc3)ncc21` [14t] had a melting point of 248 to 250 °C. In addition, at CDK2/E, the IC50 was > 1000 nM and 7700 nM. Besides, at CDK4/D1, the IC50 came out at 216 nM. Moreover, the IC50 on FLT3-ITD was found to be 345 nM. The GI50 with MV4-11 cells [4] was 520 nM. In the series with K562 cells [5], this molecule had a GI50 of 2290 nM.

Source of the values: article PMC9782245, “Synthesis and Structural Optimization of 2,7,9-Trisubstituted purin-8-ones as FLT3-ITD Inhibitors” (International Journal of Molecular Sciences, 2022).
